{"source": "BindingDB's records for patent US8829190", "about": "(Leo Pharma, 2014)", "target": "cAMP-specific 3',5'-cyclic phosphodiesterase 4D (Homo sapiens, UniProt Q08499)", "sequence (Q08499 whole entry)": "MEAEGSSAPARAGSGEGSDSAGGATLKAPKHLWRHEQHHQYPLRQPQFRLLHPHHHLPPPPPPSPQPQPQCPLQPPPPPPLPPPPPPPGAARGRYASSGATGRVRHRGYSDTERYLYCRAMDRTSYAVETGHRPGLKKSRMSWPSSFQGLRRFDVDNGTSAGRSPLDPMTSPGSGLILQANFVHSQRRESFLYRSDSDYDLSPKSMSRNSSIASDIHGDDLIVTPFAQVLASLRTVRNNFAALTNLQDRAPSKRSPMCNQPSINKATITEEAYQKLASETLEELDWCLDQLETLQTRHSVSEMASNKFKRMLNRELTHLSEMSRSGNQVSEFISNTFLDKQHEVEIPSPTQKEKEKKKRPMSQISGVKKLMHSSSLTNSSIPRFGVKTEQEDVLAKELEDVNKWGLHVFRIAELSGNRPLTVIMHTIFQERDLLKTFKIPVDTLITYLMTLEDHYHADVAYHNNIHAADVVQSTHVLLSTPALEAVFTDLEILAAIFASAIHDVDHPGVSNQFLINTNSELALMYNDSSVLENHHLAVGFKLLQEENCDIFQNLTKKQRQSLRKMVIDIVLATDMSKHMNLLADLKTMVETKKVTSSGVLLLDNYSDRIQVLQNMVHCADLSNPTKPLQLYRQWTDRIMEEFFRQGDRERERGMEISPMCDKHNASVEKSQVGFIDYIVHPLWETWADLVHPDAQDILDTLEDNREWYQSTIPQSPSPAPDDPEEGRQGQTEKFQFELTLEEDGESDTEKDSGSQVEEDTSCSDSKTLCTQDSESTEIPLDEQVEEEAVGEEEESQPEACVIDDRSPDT", "assay": "Binding Assay", "experimental": "Human recombinant PDE4 (Gene bank accession no NM006203) was incubated for 1 hour with the test compound at concentrations up to 10 μM, with cAMP (1x10-5M), and with a low amount (0.021 MBq) of radioactively labelled cAMP. At the end of the incubation, the cleavage of the substrate was evaluated by the binding of the AMP product to SPA beads, which generate chemo luminescence when bound to the radioactive tracer. The AMP product inhibited the binding of the radioactive tracer to the beads, and the luminescent signal was competed.", "data": [{"smiles": "COc1ccc(C(=O)Cc2ccccc2Cl)n2nc(C3CC3)nc12", "note": "[US8829190, 127]", "values": [{"measurement": "IC50", "result": 46, "unit": "nM"}]}]}
